Measurements taken from patent US20090111781A1, “Use of Cymipristone Type Compounds in Aids Treatment” (SHANGHAI THREE-ALLIANCE BIOTECHNOLOGIES CO., LTD., priority 2005, published 2009).
In brackets after ≈: the same amount, converted by molar mass.

Key:
[1] = molecular target: T1, glucocorticoid receptor of rat hepatic cytoplasm (Rattus norvegicus, UniProt P06536); test: Competition inhibition of [3H]-dexamethasone binding in rat hepatic cytoplasm
T1 construct: centrifuge at 175000 g for 1 hour, and take out the supernatant liquid as reserve; from tissue; host or cells: liver cytosol (175000 g supernatant) of adrenalectomised female SD rats
T1 sequence (P06536 1-795): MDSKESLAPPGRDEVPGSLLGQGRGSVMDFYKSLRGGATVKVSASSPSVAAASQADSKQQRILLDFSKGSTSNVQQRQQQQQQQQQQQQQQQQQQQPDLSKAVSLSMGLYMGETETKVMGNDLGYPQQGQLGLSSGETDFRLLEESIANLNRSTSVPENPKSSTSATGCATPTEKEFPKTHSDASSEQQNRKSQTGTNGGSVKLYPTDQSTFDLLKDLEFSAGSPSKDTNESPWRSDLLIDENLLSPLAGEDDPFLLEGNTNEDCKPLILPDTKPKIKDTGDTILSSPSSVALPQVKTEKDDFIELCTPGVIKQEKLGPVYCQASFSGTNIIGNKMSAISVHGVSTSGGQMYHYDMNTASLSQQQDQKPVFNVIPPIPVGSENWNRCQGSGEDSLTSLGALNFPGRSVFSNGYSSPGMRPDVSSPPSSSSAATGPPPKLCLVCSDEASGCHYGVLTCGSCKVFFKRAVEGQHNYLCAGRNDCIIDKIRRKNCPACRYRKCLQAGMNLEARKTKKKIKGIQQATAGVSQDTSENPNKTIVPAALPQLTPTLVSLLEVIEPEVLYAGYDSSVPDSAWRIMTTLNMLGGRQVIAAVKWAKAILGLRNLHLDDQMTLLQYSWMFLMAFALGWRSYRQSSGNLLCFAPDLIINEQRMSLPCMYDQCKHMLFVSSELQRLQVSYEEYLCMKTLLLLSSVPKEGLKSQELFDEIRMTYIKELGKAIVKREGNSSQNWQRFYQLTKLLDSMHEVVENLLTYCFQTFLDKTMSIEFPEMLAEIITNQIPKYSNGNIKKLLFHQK
Experimental: Clean female SD rats, body weight 200-250 g, are fed with certain quantity of food and freely drink water. The temperature is controlled at about 24° C. and an illumination cycle are for 11 hours by day and 13 hours at night. All animals are observed for 1 week before experiment. Incisions are made on two sides below arch of ribs on dorsal position of rats to extirpate adrenal glands. After operation, the rats are fed with physiological saline to maintain water-electrolyte balance. On the third day after operation, animals are acutely executed. The liver is taken out immediately and placed in ice cold buffer solution; the blood should be washed off as much as possible. Take certain quantity of tissue, add buffer solution (1:4), cut the tissue with scissors, intermittently homogenize the tissue under low temperature, centrifuge at 175000 g for 1 hour, and take out the supernatant liquid as reserve. […] Then carry out the competition inhibition experiment.

[2] = system: HIV-1 AZT-sensitive strain 018a P24 antigen; test: Inhibition of HIV-1 018a P24 antigen in PBMC cell culture; type: cell-based; details: for EC50: Human immunodeficiency virus 1, PBMC, 2 h, administration after adsorbing 2 hours
Experimental: Collect cells with curette, infect cells with 10^−2 AZT sensitive (018a) or AZT resistant (018c) virus strain liquid, and adsorb for 2 hours, Wash off unabsorbed virus with 1640 culture medium without serum, prepare cells infected by virus to 1×10^6/ml with culture solution, and inoculate on 96-pore culture plate, 100 μl/pore. […] Set cell control group and virus infected cell control group. Incubate under 37° C. and 5% CO2. On the fourth day (96 hours), pipette out the supernatant liquid and store under −20° C. for determination of HIV-1 P24 antigen titer and calculation of drug inhibitory action. Add MTT staining to cells for determination of cytotoxicity. Determination of cytotoxicity by MTT staining: Add 10 μl of 5 mg/ml MTT stain into each pore, continue to incubate under 37° C., 5% CO2 and saturated humidity for 4 hours. […] Determine the HIV-1 P24 antigen titer according to the operation procedure provided by the HIV-1 P24 antigen reagent kit. Compare the drug-added group with virus control group. […] Calculation method of 50% toxic concentration (CC50), 50% effective concentration (EC50) and selection index (SI):
(3) Calculation Method of Selection Index (SI) on HIV-1 P24 Antigen in Cell Culture SI=CC50/EC50

`CC#C[C@]1(O)CC[C@H]2[C@@H]3CCC4=CC(=O)CCC4=C3[C@@H](c3ccc(N(C)C4CCCCC4)cc3)C[C@@]21C` [Cymipristone, 11β-[4-(N-methyl-N-cyclohexylamino)phenyl]-17α-(1-propynyl)-17β-hydroxyl-4,9-estradiene-3-one] was tested, and the IC50 ratio ([1]; cymipristone : mifepristone) was 1.00, the RBA ratio ([1]; dexamethasone : cymipristone : mifepristone) was 5.6 and the “Relative binding activity RBA” value ([1]; dexamethasone as 100, mean ± SD, n = 4) was 557.69 ± 65.23%. The IC50 ([1]; mean ± SD, n = 4) was 2.6 nM, the inhibition at 0.1 µM ([1]; tested compound 1 × 10^−7 mol/L, mean ± SD, n = 4, read-out: Inhibition rate on binding of [3H]-dexamethasone) was 88.9 ± 9.01% and the inhibition at 0.02 µM ([1]; tested compound 2 × 10^−8 mol/L, mean ± SD, n = 4, read-out: Inhibition rate on binding of [3H]-dexamethasone) was 75.6 ± 3.56%. For the same molecule, the inhibition at 0.004 µM ([1]; tested compound 4 × 10^−9 mol/L, mean ± SD, n = 4, read-out: Inhibition rate on binding of [3H]-dexamethasone) was 54.5 ± 4.24%, the inhibition at 0.5 µM ([1]; tested compound 5 × 10^−7 mol/L, mean ± SD, n = 4, read-out: Inhibition rate on binding of [3H]-dexamethasone) was 95.4 ± 5.34% and the inhibition at 0.0008 µM ([1]; tested compound 8 × 10^−10 mol/L, mean ± SD, n = 4, read-out: Inhibition rate on binding of [3H]-dexamethasone) was 31.2 ± 3.87%. It also gave an inhibition at 0.0016 µM ([1]; tested compound 16 × 10^−10 mol/L, mean ± SD, n = 4, read-out: Inhibition rate on binding of [3H]-dexamethasone) of 17.2 ± 6.76%, an EC50 ([2]; Average, PBMC) of 12.4 µg/mL (≈ 24.8 µM) and an EC50 ([2]; Experiment 1, PBMC) of 12.5 µg/mL (≈ 25.1 µM). The EC50 ([2]; Experiment 2, PBMC) was 12.2 µg/mL (≈ 24.6 µM), the SI ([2]; SI=CC50/EC50, Average) was 10.53 and the SI ([2]; SI=CC50/EC50, Experiment 1) was 8.30. For the same molecule, the SI ([2]; SI=CC50/EC50, Experiment 2) was 12.76.
